A short description of series [1]: LC-MS/MS of farnesol and metabolite FPP in extensor digitorum longus muscle. The following applies: mouse orally administered with farnesol 5 weeks. The format is in vivo. As to the method:
The amount of intracellular farnesol or metabolite thereof is measured in the extensor digitorum longus muscle of a mouse administered with farnesol for 5 weeks.
Sample pretreatment for quantitative analysis of farnesol in the mouse extensor digitorum longus muscle is performed by extraction using saturated KOH/ethanol and fractionation using Tris-HCl buffer and n-hexane: ethanol (Journal of Pharmaceutical and Biomedical Analysis 47(2008) 560-566) and an n-hexane layer is obtained and dried, followed by LC-MS/MS (ACQUITY UPLC System and ACQUITY TQD mass spectrometry, Waters). […] The concentration of farnesol is determined by a ratio of a peak area of farnesol to a peak area of 1-tetradecanol used as an internal standard, they are added to the sample in an equal amount.
Sample pretreatment for quantitative analysis of a farnesol metabolite, farnesylpyrophosphate (FPP) in the mouse extensor digitorum longus muscle is performed by extraction using 2-propanol: 100 mM NH4HCO3, pH 7.8 (1:1 v/v) and protein precipitation using acetonitrile (Anal. Biochem. 383 (2008) 18-24), and a supernatant is obtained and dried, followed by LC-MS/MS (ACQUITY UPLC System and ACQUITY TQD mass spectrometry, Waters). […] The concentration of FPP is determined by a peak area.

The subject of series [2] is injured tibialis anterior muscles. In words: Histological staining of cardiotoxin-injured tibialis anterior muscles of old animals. The format is in vivo, mouse. The following applies: 25-month-old mice, farnesol diet 2 weeks, 4 days after CTX injury. The method, then: 25-month-old mice are fed with a control diet or a farnesol-containing diet for 2 weeks, and then 2 ul of 10 uM cardiotoxin (CTX) per body weight (g) is directly injected into the muscle to induce muscle injury. After 4 days, muscles are frozen and sectioned, followed by histological staining.
Hematoxylin and eosin (H&E) staining and sirus red staining are used in histological staining. Because muscle fibrosis […] and muscle regeneration is active at 4 days after muscle injury, effect of farnesol administration may be determined by histological staining. H&E staining is performed to examine structural recovery of injury, and sirus red staining is performed to examine the presence of fibrosis. […] That is, the control old animal has more thicker fibrosis regions located between the fibers than the experimental old animal treated with farnesol.

In a further series the target is T1, PARIS (Mus musculus, UniProt Q3U133).
T1 construct: endogenous in cells; host or cells: C2C12 myoblasts
T1 sequence (Q3U133 whole entry): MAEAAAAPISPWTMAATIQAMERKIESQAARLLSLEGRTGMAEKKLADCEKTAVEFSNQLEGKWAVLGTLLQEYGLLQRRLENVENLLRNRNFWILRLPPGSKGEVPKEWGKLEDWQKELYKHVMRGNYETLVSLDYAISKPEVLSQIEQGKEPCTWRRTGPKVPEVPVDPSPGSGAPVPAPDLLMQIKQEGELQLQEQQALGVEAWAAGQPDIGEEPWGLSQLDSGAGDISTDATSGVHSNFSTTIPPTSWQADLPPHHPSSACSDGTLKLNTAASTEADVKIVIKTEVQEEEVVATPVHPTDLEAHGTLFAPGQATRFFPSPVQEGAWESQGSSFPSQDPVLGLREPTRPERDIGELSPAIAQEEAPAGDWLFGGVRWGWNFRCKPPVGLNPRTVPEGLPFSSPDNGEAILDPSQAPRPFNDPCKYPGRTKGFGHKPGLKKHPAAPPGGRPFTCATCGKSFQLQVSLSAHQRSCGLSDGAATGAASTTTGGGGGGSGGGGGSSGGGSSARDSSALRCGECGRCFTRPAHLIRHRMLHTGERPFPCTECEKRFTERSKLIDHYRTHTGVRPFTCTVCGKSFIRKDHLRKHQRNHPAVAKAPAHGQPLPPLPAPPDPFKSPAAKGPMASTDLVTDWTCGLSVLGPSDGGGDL
In words: Immunoprecipitation analysis for PARIS farnesylation in myoblasts. The class given is cell-based. The method, then: C2C12 cells are cultured in the presence of farnesol, and cell lysate is subjected to immunoprecipitation. As an experimental group, C2C12 cells are cultured in the presence of 10 uM farnesol for 24 hours, and also cultured in the differentiation medium described in Section 2 of Example 1 for 24 hours by adding 10 uM farnesol according to a culturing schedule, that is, at 0 day, 1 day, 2 days, 3 days, and 4 days (hereinafter, also referred to as ‘D0, D1, D2, D3 and D4’ or ‘D0-D04’). Next, a cell lysis buffer (20 mM Tris-HCl, pH 8, 150 mM NaCl, 1% Triton X, Proteinase Inhibitor) is added to the harvested cells, and cell lysis is allowed under refrigeration for 60 minutes, followed by centrifugation at 13,000 rpm for 20 minutes. A supernatant is removed by 50 uL of protein A/G-agarose in advance, and a target protein antibody is reacted for 12 hours or longer. The resultant is mixed with protein A/G-agarose beads, and stirred for 1 hour. The beads are washed with a cold lysis buffer at a low concentration three times to remove abnormal protein binding. The obtained sample is mixed with a 2×SDS sample buffer (0.125 M Tris-HCl (pH 6.8), 4% SDS, 10% β-mercaptoethanol, 18% glycerol, and 0.1% Bromophenol Blue), and then electrophoresed on 8% SDS-PAGE. […]

Some results are limits rather than exact numbers.

Consider `CC(C)=CCC/C(C)=C/CC/C(C)=C/CO` [farnesol, (2E,6E)-3,7,11-trimethyldodeca-2,6,10-trien-1-ol], for which the “amount of farnesol in EDL muscle relative to control” value in series [1] is not below 1.3 times. Further, in series [2], the “percentage of blue and red stained muscle fibers (sirus red staining)” value is reported as “remarkably reduced”; the “regenerative region and fibrotic area” value is “a widespread regenerative region and a narrow fibrotic area”; the “size of muscle fibers stained red (H&E staining)” value is on record as “increased”. The “farnesylated PARIS level” value on PARIS (10 uM farnesol, D0-D4) is “further increases”. The PGC-1α expression result on PARIS (10 uM farnesol-treated myoblasts) was “increased”.

The values are drawn from patent US10780061B2, “Composition comprising farnesol and use thereof” (Daegu Gyongbuk Institute of Science and Technology, priority 2014, dated 2020).
